From patent US20230124142A1, “NEW THERAPEUTIC TARGETS WITH AN ANTI-INFLAMMATORY AND ANTI-INTERFERON EFFECT” (UNIVERSITÉ PARIS CITÉ, priority 2020, published 2023)

Assays:
[1] = tested on: peripheral blood mononuclear cells (PBMCs); experiment: Interferon production by cGAMP-activated PBMCs, STING-37 reporter cell line; conditions: inhibitor 1 h before cGAMP 3 μg/ml, 24 h, STING-37 reporter (FIG. 22A, 23A)
[2] = tested on: monocytes of healthy donors; experiment: Intracellular TNFα production in monocytes after TLR7/8 (Resiquimod-R848) stimulation, flow cytometry; type: cell-based, human; conditions: inhibitor 1 h before R848 (TLR7/8), 16 h, flow cytometry (FIG. 1, 2)
Protocol: (§1) The cells were rinsed in PBS then incubated with a viability dye (Zombie Aqua, Biolegend) for 30 min at ambient temperature. After washing, the cells were resuspended in PBS containing 2% SVF and 2 mM EDTA then labelled with the APC Vio770 anti-CD14 (clone REA599) antibody from Miltenyi Biotec, used at 1/100°. […] Data acquisition was carried out on the Canto 11 flow cytometer using the Diva software (BD Biosciences, San Jose, Calif.). The Kaluza software was used to analyze the data.

[3] = tested on: T lymphocytes; experiment: CD69 expression and viability of T lymphocytes activated with CD3/CD28 beads, flow cytometry; type: cell-based, human; conditions: purified T lymphocytes, 3 days (FIG. 19)
Protocol: (§2) The monocytes, T lymphocytes and B lymphocytes were cultured at 1·10^6/ml. […] The T lymphocytes were stimulated for 3 days with beads from the “Dynabeads human T activator CD3/CD28” kit from Thermo Fisher Scientific, following their instructions. […] The B lymphocytes were stimulated for 24 h with CpG-A t 1 μg/ml. […] The cells were rinsed in PBS then incubated with a viability dye (Zombie Aqua, Biolegend) for 30 min at ambient temperature. After washing, the cells were resuspended in PBS containing 2% SVF and 2 mM EDTA. For the monocytes, an intracellular labelling of TNFα, IL-6 and IL-1β, with the “Inside Stain” kit (Miltenyi Biotec) was used following the manufacturer's protocol. […] Data acquisition was carried out on the Attune N×T flow cytometer from Thermo Fisher. The FlowJo software was used to analyze the data. For the T lymphocytes, the cells were suspended in PBS containing 2% SVF and 2 mM EDTA then labelled with the PE anti-CD69 and APC anti-CD3 antibody from Miltenyi Biotec, used at 1/100°. After incubation for 30 min, the cells were rinsed in PBS containing 2% SVF and 2 mM EDTA. Data acquisition was carried out on the Attune N×T flow cytometer from Thermo Fisher. The FlowJo software was used to analyze the data. […]

[4] = tested on: activated immune cells; experiment: Secretion of inflammatory cytokines and interferons by activated immune cells placed in contact with ROCK inhibitor; type: cell-based; conditions: compared with activated immune cells not placed in contact with the inhibitor
[5] = tested on: THP1-Dual human monocyte cell line; experiment: Cell toxicity on THP1-Dual, ATP quantification with CellTiter Glo; type: cell-based; conditions: cGAMP 24 h
[6] = tested on: PBMCs of patients suffering from juvenile idiopathic arthritis; experiment: Transcription of TNFα and IL-6 genes in PBMCs of juvenile idiopathic arthritis patients, RT-qPCR; type: cell-based, human; conditions: inhibitor at 1 μM for 16 h, RT-qPCR (FIG. 21)
[7] = tested on: NF-κB transcription factor; experiment: NF-κB transcription factor activity, supernatants of R848-stimulated PBMCs on THP1-Dual reporter line; type: cell-based; conditions: human PBMCs, inhibitor 1 h before R848, 24 h, QUANTI-Blue (FIG. 17B)
Protocol: The monocytes, T lymphocytes and B lymphocytes were cultured at 1·10^6/ml. […] The T lymphocytes were stimulated for 3 days with beads from the “Dynabeads human T activator CD3/CD28” kit from Thermo Fisher Scientific, following their instructions. […] The B lymphocytes were stimulated for 24 h with CpG-A t 1 μg/ml. […] The activity of the NF-κB transcription factor was measured by means of the THP1-Dual reporter cell line from Invivogen. […] The activity of the NF-κB transcription factor was measured with QUANTI-Blue, a detection agent […], following the supplier's recommendations.

[8] = tested on: B lymphocytes; experiment: CD69 expression and viability of B lymphocytes activated with CpG-A (TLR9 ligand), flow cytometry; type: cell-based, human; conditions: purified B lymphocytes, 24 h (FIG. 20)
Protocol: as §2

[9] = tested on: HEK293 non-immune cell line; experiment: Interferon production by cGAMP-activated HEK293 non-immune cells (STING-37), luciferase; conditions: inhibitor at 1 and 5 μM (FIG. 22C)
[10] = tested on: monocytes of healthy donors; experiment: Intracellular IL1β and TNFα in monocytes after inflammasome activation by uric acid crystals (MSU, gout model), flow cytometry; type: cell-based, human; conditions: activation of the inflammasome by uric acid crystals (mimicking gout)
Protocol: as §1, with “II” for “11”

[11] = tested on: peripheral blood mononuclear cells (PBMCs) of healthy donors; experiment: Secretion of inflammatory cytokines and interferons by PBMCs after TLR7/8 (R848) stimulation, LegendPlex; conditions: human PBMCs incubated with inhibitor before R848 stimulation
[12] = tested on: peripheral blood mononuclear cells (PBMCs); experiment: Cell toxicity on PBMCs, ATP quantification with CellTiter Glo; type: cell-based, human; conditions: cGAMP 24 h
[13] = tested on: immune cells (PBMCs and purified monocytes) of healthy donors; experiment: Production of inflammatory cytokines by PBMCs and purified monocytes after TLR2/4 stimulation by bacterial agents; type: cell-based, human; conditions: TLR 2/4 stimulation by lipoteichoic acid/LPS
[14] = tested on: THP1-Dual human monocyte cell line; experiment: Interferon response of cGAMP-activated THP1-Dual cells, luciferase; conditions: inhibitor 1 h before cGAMP 3 μg/ml, 24 h, luciferase (FIG. 22B, 23B)
[15] = tested on: monocytes of healthy donors; experiment: TNFα, IL-1β and IL-6 production and viability of R848-activated purified monocytes, flow cytometry; type: cell-based, human
Protocol: as §2

[16] = tested on: human PBMCs; experiment: Interferons in supernatants of R848-stimulated PBMCs, STING-37 reporter cell line; type: cell-based; parameters: dose or concentration left out as unconfirmed; conditions: inhibitor 1 h before R848, 24 h, STING-37 reporter (FIG. 17A)
[17] = tested on: neurones infected by the prions; type: cell-based

SMILES: C[C@@H](N)[C@H]1CC[C@H](C(=O)Nc2ccncc2)CC1 [Y27632]
- production of interferons (IFN) induced by the cGAMP [1]: blocks the production of interferons (IFN) induced by the cGAMP according to a dosage effect starting from 1 μM
- intracellular production of inflammatory cytokines (TNFα) [2]: inhibits, according to a dosage effect
- viability of the T lymphocytes ([3]; CD3/CD28 beads): without affecting the viability
- expression of the CD69 marker at the surface of the T lymphocytes ([3]; inhibitor at 1 and 5 μM, 1 h before CD3/CD28 beads): inhibits, according to a dosage effect
- secretion of the inflammatory cytokines (TNFα, IL-1β, IL6, MCP1 (CCL2)) and of the interferons (IFN) [4]: inhibits the secretion
- viability of the THP1-Dual [5]: without affecting the viability
- transcription of the genes encoding TNFα and IL-6 [6]: inhibits the transcription
- activation of the transcription factor of the NF-κB pathway induced by the stimulation of TLR7/8 [7]: inhibits
- viability of the B lymphocytes ([8]; CpG-A): without affecting the viability
- expression of the CD69 marker at the surface of the B lymphocytes ([8]; inhibitor at 1 μM, 1 h before CpG-A 1 μg/ml): inhibits, according to a dosage effect
- production of interferon induced by the STING ligand [9]: blocks in a limited manner
- production of inflammatory cytokines [10]: capable of inhibiting the production of inflammatory cytokines
- production of TNFα and of pro-inflammatory cytokines such as IL-6, IL-1β and the interferons induced by the TLR7/8 stimulation [11]: inhibits the production
- viability of the PBMCs [12]: without affecting the viability
- production of inflammatory cytokines [13]: capable of inhibiting the production of inflammatory cytokines
- production of interferons (IFN) induced by the cGAMP [14]: blocks the production of interferons (IFN) induced by the cGAMP according to a dosage effect starting from 1 μM
- production of TNFα, IL-1β and IL-6 induced by R848 ([15]; inhibitor 1 h before R848 1 μg/ml, 6 h, flow cytometry (FIG. 18)): inhibits, according to a dosage effect
- viability of the monocytes ([15]; inhibitor 1 h before R848, 6 h (FIG. 18)): without affecting the viability
- production of IFN induced by the stimulation of TLR7/8 [16]: inhibits
- level of TNFα in the culture medium [17]: re-establishes a “normal” level
